{
  "source": "patent US20060051358A1",
  "about": "“Immune response assessment method” (Baylor Research Institute, priority 2004, published 2006)",
  "format_in_all_cases": "cell-based, human",
  "key": {"[1]": {"tested_on": "CFSE-labeled CD4+ T cells and allogeneic mature DCs", "assay": "Third party MLR suppression assay in transwells", "settings": "patient's PBMC stimulated with peptide added in transwells", "description": "(§1) FIGS. 29A-D are graphs that depict the immune response of a melanoma patients as evaluated according the present invention. PBMCs obtained from a melanoma patient were stimulated with clusters of peptides or individual peptides encoding NY-ESO1. IL-10 levels in culture supernatant at 48 hours of culture are shown (FIG. 29A). […] To explore the origin of IL-10 production, the PBMCs were stimulated with peptide#39 in the presence of anti CD28/CD49d mAbs and monensin for 8 hours, and stained with IL-10 specific mAb. […] Next, to evaluate whether this IL-10 producing T cells had regulatory properties, PBMCs stimulated with peptide #39 or irrelevant 15-mer peptide were added in transwells to a “third party” MLR to test suppression of T cell expansion by the release of soluble mediators. The MLR used CFSE-labeled CD4^+T cells and allogeneic mature DCs, both from healthy volunteers, in order to avoid the effect of peptide-specific T cell response."}, "[2]": {"tested_on": "T cells in melanoma patient PBMCs", "assay": "Intracellular cytokine detection assay (flow cytometry)", "settings": "8 hours with anti CD28/CD49d mAbs and monensin", "description": "FIG. 12A is a graph that depicts the immune response of a melanoma patient as evaluated according the present invention. PBMCs obtained before DC vaccination and post 8 DC vaccinations from a melanoma patient (same as FIG. 10) were stimulated with single 15-mer MART-1 peptides or diluent. The levels of IL-1a and IP-10 in the culture supernatants at 48 h of culture are shown. […] To examine this hypothesis, we used a different well-established methodology, intracellular cytokine detection assay. The same PBMCs were stimulated for 8 h with MART-1 15-mer single peptides in the presence of anti-CD28/CD49d mAb and monensin. After permeabilization of the cell membrane, the cells were stained with anti-IFN-γ mAb and the IFN-γ+ populations were analyzed with a flowcytometer (FIG. 12B).\nThe same patient's PBMCs were stimulated for 8 hours with MART-1 15-mer peptide#10 in the presence of antiCD28/CD49d mAb and monensin. The production of IL-2 were analyzed by staining with specific mAbs.\nThe same patient's PBMCs were stimulated for 8 hours with MART-1 15-mer peptide#11 in the presence of antiCD28/CD49d mAb and monensin. The production of IL-5 were analyzed by staining with specific mAbs.\nas §1"}, "[3]": {"tested_on": "PBMCs obtained from melanoma patients", "assay": "EPIMAX: PBMC culture with peptides or peptide clusters, multiplex bead cytokine assay (Luminex)"}, "[4]": {"tested_on": "CD4+ / CD8+ T cells in melanoma patient PBMCs", "assay": "CFSE dilution T cell proliferation assay, melanoma patient PBMCs", "settings": "epitopes for Th0, Th1, Th2 cells; patient 094-012, Post"}, "[5]": {"tested_on": "CD4+ / CD8+ T cells in melanoma patient PBMCs", "assay": "CFSE dilution T cell proliferation assay, melanoma patient PBMCs", "settings": "epitopes for Th0, Th1, Th2 cells", "excerpt": "FIG. 13 depicts the immune response of a melanoma patient as evaluated according the present invention. CFSE (5,6-carboxyfluorescein diacetate succinimidyl ester) is a tracer dye that permits to identify the number of cell division with a flowcytometer. As EPIMAX is a non-destructive assay, we combined with EPIMAX and CFSE technology to determine the proliferative capacity of antigen-specific T cells. […] PBMCs obtained from the same melanoma patient (same as FIG. 10) were first stained with 1 uM of CFSE, and stimulated with either clusters of overlapping peptides or individual peptides encoding MART-1. On day 8 of culture, the cells were stained with CD8-PE, CD3-PerCP, and CD4-APC, and analyzed T cell proliferation in response to peptide stimulation.\n(§2) FIG. 14 depicts the immune response of a melanoma patient as evaluated according the present invention. PBMCs obtained from the same melanoma patient (same as FIG. 10) were first stained with 1 μM of CFSE, and stimulated with individual peptides encoding MART-1 in triplicates. On day 8 of culture, the cells were stained with CD8-PE, CD3-PerCP, and CD4-APC, and analyzed T cell proliferation in response to peptide stimulation.\nas §2, with “FIGS. 21A-B” for “FIG. 14”, “19)” for “10)”, “stimulation. […] FIG. 21B depicts the CFSE-diluted CD4+ T cell populations in response to each MART-1 15-mer peptide within the CD4^+ T cell population.” for “stimulation.”\nFIGS. 22 A-C depicts the immune response of a melanoma patient as evaluated according the present invention. PBMCs obtained from a HLA-A2^neg melanoma patient who received DC vaccinations were first stained with 1 μM of CFSE, and stimulated with clusters of peptides encoding NY-ESO1. On day 8 of culture, the cells were stained with CD8-PE, CD3-PerCP, and CD4-APC, and analyzed T cell proliferation in response to peptide stimulation was analyzed based on CFSE dilution with a flowcytometer. […] FIG. 22B depicts the IL-2 levels in the culture supernatant at 48 hours of culture. […] To identify the epitope for CD4+ T cells, CFSE-stained PBMCs were stimulated with individual peptides within NY-ESO1 cluster#8. The proliferating CD4+ T cells were analyzed based on CFSE dilution with a flowcytometer on day 8."}, "[6]": {"settings": "epitopes for Th0, Th1, Th2 cells, patient 094-012, Post"}},
  "data": [
    {"substance": "NY-ESO1 p39: 15-mer of NY-ESO1 library, residues 153-167 (LQQLSLLMWITQCFL; UniProt P78358 153-167, looked up, fragment)", "values": [
      {"measurement": "proliferation in third party MLR", "setting": "[1]", "result": "significantly suppressed proliferation in the MLR"},
      {"measurement": "CD4+ T cells producing IL-10", "setting": "[2]", "result": "about 0.11%"},
      {"measurement": "Type of response", "setting": "[3]; epitopes for CD8+ T cells, patient 094-007, Post", "result": 1},
      {"measurement": "Type of response", "setting": "[3]; epitopes for CD8+ T cells, patient 094-007, Pre", "result": 1}
    ]},
    {"substance": "gp100 p78: 15-mer of gp100 library, residues 309-323 (TTDGHRPTAEAPNTT; UniProt P40967 309-323, looked up, fragment)", "values": [
      {"measurement": "proliferation", "setting": "[4]", "result": "Yes"},
      {"measurement": "Type of response", "setting": "[3]; [6]", "result": 2}
    ]},
    {"substance": "gp100 p152: 15-mer of gp100 library, residues 605-619 (VLMAVVLASLIYRRR; UniProt P40967 605-619, looked up, fragment)", "values": [
      {"measurement": "proliferation", "setting": "[4]", "result": "Yes"},
      {"measurement": "proliferation", "setting": "[5]; patient 094-009, Post", "result": "Yes"},
      {"measurement": "proliferation", "setting": "[5]; patient 094-015, Post", "result": "Yes"},
      {"measurement": "Type of response", "setting": "[3]; epitopes for Th0, Th1, Th2 cells, patient 094-009, Post", "result": 0},
      {"measurement": "Type of response", "setting": "[3]; [6]", "result": 2},
      {"measurement": "Type of response", "setting": "[3]; epitopes for Th0, Th1, Th2 cells, patient 094-015, Post", "result": 0},
      {"measurement": "CD4+ T cell epitope identification (cytokines at 48 h, CFSE dilution day 8)", "setting": "[3]; two melanoma patients, peptides of TRP-1 cluster#25 or gp100 cluster#15", "result": "are epitopes for CD4^+ T cells"}
    ]}
  ]
}
